EC50 data for 34 compounds are collected here from BindingDB's records for doi:10.1016/j.bmcl.2009.04.040 (The University of Texas Southwestern Medical Center At …, 2009).

Chain of Proto-oncogene Wnt-3 (P56703 whole entry): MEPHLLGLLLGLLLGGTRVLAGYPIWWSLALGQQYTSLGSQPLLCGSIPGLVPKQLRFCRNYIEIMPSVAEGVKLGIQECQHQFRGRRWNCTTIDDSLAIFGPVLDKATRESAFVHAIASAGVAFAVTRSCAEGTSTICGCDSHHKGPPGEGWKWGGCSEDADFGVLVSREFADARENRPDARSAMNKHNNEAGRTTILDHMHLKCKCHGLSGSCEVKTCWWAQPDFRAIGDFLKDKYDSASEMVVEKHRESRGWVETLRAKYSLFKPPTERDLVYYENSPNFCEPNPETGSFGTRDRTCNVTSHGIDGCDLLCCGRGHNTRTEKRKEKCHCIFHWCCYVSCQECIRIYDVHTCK

This assay addresses Proto-oncogene Wnt-3 (Homo sapiens, UniProt P56703). As to the kind of experiment: Inhibition of Wnt3 expressed in mouse L-cells assessed as inhibition of Wnt/catanin signaling pathway by luciferase reporter gene assay.
Take `O=C(Nc1ccc(C(F)(F)F)cc1)c1ccc(-n2c(O)c3c(c2O)[C@H]2C=C[C@@H]3C2)cc1` [4-((1R,2S,6R,7S)-3,5-Dioxo-4-aza-tricyclo[5.2.1.0*2,6*]dec-8-en-4-yl)-N-(4-trifluoromethyl-phenyl)-benzamide]: the EC50 is > 25 µM. With `O=C1[C@@H]2[C@H](C(=O)N1[C@H]1CC[C@H](C(=O)Nc3cccc4cccnc34)CC1)[C@@H]1C=C[C@H]2C1` [4-((1R,2S,6R,7S)-3,5-Dioxo-4-aza-tricyclo[5.2.1.0*2,6*]dec-8-en-4-yl)-cyclohexanecarboxylic acid quinolin-8-ylamide], the EC50 turned out to be 0.4 µM. In the case of `O=C(NCc1ccccn1)c1ccc(-n2c(O)c3c(c2O)[C@H]2C=C[C@@H]3C2)cc1` [4-((1R,2S,6R,7S)-3,5-Dioxo-4-aza-tricyclo[5.2.1.0*2,6*]dec-8-en-4-yl)-N-pyridin-2-ylmethyl-benzamide], the EC50 was > 25 µM. Regarding `O=C(Nc1cccc(C(F)(F)F)c1)c1ccc(-n2c(O)c3c(c2O)[C@H]2C=C[C@@H]3C2)cc1` [4-((1R,2S,6R,7S)-3,5-Dioxo-4-aza-tricyclo[5.2.1.0*2,6*]dec-8-en-4-yl)--(3-trifluoromethyl-phenyl)-benzamide], the EC50 was 20 µM. As to `COc1ccccc1NC(=O)c1ccc(-n2c(O)c3c(c2O)[C@H]2C=C[C@@H]3C2)cc1` [4-((1R,2S,6R,7S)-3,5-Dioxo-4-aza-tricyclo[5.2.1.0*2,6*]dec-8-en-4-yl)-N-(2-methoxy-phenyl)-benzamide], the EC50 worked out at 1 µM. Then `O=C(NC1CCCCC1)c1ccc(-n2c(O)c3c(c2O)[C@H]2C=C[C@@H]3C2)cc1` [N-Cyclohexyl-4-((1R,2S,6R,7S)-3,5-dioxo-4-aza-tricyclo[5.2.1.0*2,6*]dec-8-en-4-yl)-benzamide], with > 25 µM; and `Cc1ccc2cccnc2c1NC(=O)[C@H]1CC[C@H](CN2C(=O)[C@@H]3[C@H](C2=O)[C@@H]2C=C[C@H]3C2)CC1` [4-((1R,2S,6R,7S)-3,5-Dioxo-4-aza-tricyclo[5.2.1.0*2,6*]dec-8-en-4-ylmethyl)-cyclohexanecarboxylic acid(7-methyl-quinolin-8-yl)-amide], with 10 µM. For `CN(C(=O)c1ccc(-n2c(O)c3c(c2O)[C@H]2C=C[C@@H]3C2)cc1)c1cccc2cccnc12` [4-((1R,2S,6R,7S)-3,5-Dioxo-4-aza-tricyclo[5.2.1.0*2,6*]dec-8-en-4-yl)-N-methyl-N-quinolin-8-yl-benzamide], the EC50 is > 25 µM. On to `O=C(Nc1ccc(Br)c(Br)c1)c1ccc(-n2c(O)c3c(c2O)[C@H]2C=C[C@@H]3C2)cc1` [N-(3,4-Dibromo-phenyl)-4-((1R,2S,6R,7S)-dioxo-4-aza-tricyclo[5.2.1.0*2,6*]dec-8-en-4-yl)-benzamide], for which the EC50 came out at 10 µM.

Regarding `Cc1ccnc2c(NC(=O)[C@H]3CC[C@H](N4C(=O)[C@@H]5[C@H](C4=O)[C@@H]4C=C[C@H]5C4)CC3)cccc12` [4-((1R,2S,6R,7S)-3,5-Dioxo-4-aza-tricyclo[5.2.1.0*2,6*]dec-8-en-4-yl)-cyclohexanecarboxylic acid(4-methyl-quinolin-8-yl)-amide], the EC50 turned out to be 1 µM. Take `O=C(NC1CCCc2cccnc21)c1ccc(-n2c(O)c3c(c2O)[C@H]2C=C[C@@H]3C2)cc1` (stereo partly drawn) [4-((1R,2S,6R,7S)-3,5-Dioxo-4-aza-tricyclo[5.2.1.0*2,6*]dec-8-en-4-yl)-N-(5,6,7,8-tetrahydro-quinolin-8-yl)-benzamide]: the EC50 stood at 10 µM. As for `O=C(Nc1ccc(Cl)cc1)c1ccc(-n2c(O)c3c(c2O)[C@H]2C=C[C@@H]3C2)cc1` [N-(4-Chloro-phenyl)-4-((1R,2S,6R,7S)-3,5-dioxo-4-aza-tricyclo[5.2.1.0*2,6*]dec-8-en-4-yl)-benzamide], the EC50 was 3 µM. Take `O=C(Nc1cccc(Cl)c1)c1ccc(-n2c(O)c3c(c2O)[C@H]2C=C[C@@H]3C2)cc1` [N-(3-Chloro-phenyl)-4-((1R,2S,6R,7S)-3,5-dioxo-4-aza-tricyclo[5.2.1.0*2,6*]dec-8-en-4-yl)-benzamide]: the EC50 was > 25 µM.

In the case of `O=C(Nc1ccc(Cl)cc1Cl)c1ccc(-n2c(O)c3c(c2O)[C@H]2C=C[C@@H]3C2)cc1` [N-(2,4-Dichloro-phenyl)-4-((1R,2S,6R,7S)-dioxo-4-aza-tricyclo[5.2.1.0*2,6*]dec-8-en-4-yl)-benzamide], the half-maximal effective concentration (EC50) came to 10 µM.

As to `O=C(Nc1cccc(F)c1)c1ccc(-n2c(O)c3c(c2O)[C@H]2C=C[C@@H]3C2)cc1` [4-((1R,2S,6R,7S)-3,5-Dioxo-4-aza-tricyclo[5.2.1.0*2,6*]dec-8-en-4-yl)-N-(3-fluoro-phenyl)-benzamide], the EC50 is > 25 µM.

With `O=C(Nc1cccc(Br)c1)c1ccc(-n2c(O)c3c(c2O)[C@H]2C=C[C@@H]3C2)cc1` [N-(3-Bromo-phenyl)-4-((1R,2S,6R,7S)-3,5-dioxo-4-aza-tricyclo[5.2.1.0*2,6*]dec-8-en-4-yl)-benzamide], the EC50 is 9 µM. On to `O=C(NCc1ccncc1)c1ccc(-n2c(O)c3c(c2O)[C@H]2C=C[C@@H]3C2)cc1` [4-((1R,2S,6R,7S)-3,5-Dioxo-4-aza-tricyclo[5.2.1.0*2,6*]dec-8-en-4-yl)-N-pyridin-4-ylmethyl-benzamide], for which the EC50 was 10 µM. Then `O=C(NCc1ccccc1)c1ccc(-n2c(O)c3c(c2O)[C@H]2C=C[C@@H]3C2)cc1` [N-Benzyl-4-((1R,2S,6R,7S)-3,5-dioxo-4-aza-tricyclo[5.2.1.0*2,6*]dec-8-en-4-yl)-benzamide], with 20 µM. For the compound `Cc1ccc2cccnc2c1NC(=O)[C@H]1CC[C@H](N2C(=O)[C@@H]3[C@H](C2=O)[C@@H]2C=C[C@H]3C2)CC1` [4-((1R,2S,6R,7S)-3,5-Dioxo-4-aza-tricyclo[5.2.1.0*2,6*]dec-8-en-4-yl)-cyclohexanecarboxylic acid(7-methyl-quinolin-8-yl)-amide], the EC50 was 1 µM. For the compound `O=C(Nc1ccc(Br)cc1Br)c1ccc(-n2c(O)c3c(c2O)[C@H]2C=C[C@@H]3C2)cc1` [N-(2,4-Dibromo-phenyl)-4-((1R,2S,6R,7S)-dioxo-4-aza-tricyclo[5.2.1.0*2,6*]dec-8-en-4-yl)-benzamide], the concentration giving a half-maximal response (EC50) was > 25 µM. For `CO[C@@H]1CCCC[C@H]1NC(=O)c1ccc(-n2c(O)c3c(c2O)[C@H]2C=C[C@@H]3C2)cc1` [trans-4-((1R,2S,6R,7S)-3,5-Dioxo-4-aza-tricyclo[5.2.1.0*2,6*]dec-8-en-4-yl)-N-(2-methoxy-cyclohexyl)-benzamide], the concentration for a half-maximal effect (EC50) was determined as 2 µM. Next, `O=C(Nc1c(F)cccc1F)c1ccc(-n2c(O)c3c(c2O)[C@H]2C=C[C@@H]3C2)cc1` [N-(2,6-Difluoro-phenyl)-4-((1R,2S,6R,7S)-dioxo-4-aza-tricyclo[5.2.1.0*2,6*]dec-8-en-4-yl)-benzamide]: > 25 µM; `O=C(Nc1cc(F)cc(F)c1)c1ccc(-n2c(O)c3c(c2O)[C@H]2C=C[C@@H]3C2)cc1` [N-(3,5-Difluoro-phenyl)-4-((1R,2S,6R,7S)-dioxo-4-aza-tricyclo[5.2.1.0*2,6*]dec-8-en-4-yl)-benzamide]: > 25 µM; `O=C(Nc1ccccc1F)c1ccc(-n2c(O)c3c(c2O)[C@H]2C=C[C@@H]3C2)cc1` [4-((1R,2S,6R,7S)-3,5-Dioxo-4-aza-tricyclo[5.2.1.0*2,6*]dec-8-en-4-yl)-N-(2-fluoro-phenyl)-benzamide]: > 25 µM. As for `O=C(Nc1ccc(Br)cc1)c1ccc(-n2c(O)c3c(c2O)[C@H]2C=C[C@@H]3C2)cc1` [N-(4-Bromo-phenyl)-4-((1R,2S,6R,7S)-3,5-dioxo-4-aza-tricyclo[5.2.1.0*2,6*]dec-8-en-4-yl)-benzamide], the EC50 came to 1 µM. With `O=C(Nc1cccc2cccnc12)c1ccc(-n2c(O)c3c(c2O)[C@H]2C=C[C@@H]3C2)cc1Cl` [2-Chloro-4-((1R,2S,6R,7S)-3,5-dioxo-4-aza-tricyclo[5.2.1.0*2,6*]dec-8-en-4-yl)-N-quinolin-8-yl-benzamide], the EC50 is 1 µM. On to `Cc1ccc2cccnc2c1NC(=O)c1ccc(-n2c(O)c3c(c2O)[C@H]2C=C[C@@H]3C2)cc1` [4-((1R,2S,6R,7S)-3,5-Dioxo-4-aza-tricyclo[5.2.1.0*2,6*]dec-8-en-4-yl)-N-(7-methyl-quinolin-8-yl)-benzamide], for which the EC50 stood at 0.8 µM. Take `O=C(Nc1ccccc1)c1ccc(-n2c(O)c3c(c2O)[C@H]2C=C[C@H]3C2)cc1` [4-((1R,2S,6R,7R)-3,5-Dioxo-4-aza-tricyclo[5.2.1.0*2,6*]dec-8-en-4-yl)-N-phenyl-benzamide]: the EC50 is > 25 µM. With `O=C(Nc1ccc(F)cc1)c1ccc(-n2c(O)c3c(c2O)[C@H]2C=C[C@@H]3C2)cc1` [4-((1R,2S,6R,7S)-3,5-Dioxo-4-aza-tricyclo[5.2.1.0*2,6*]dec-8-en-4-yl)-N-(4-fluoro-phenyl)-benzamide], the EC50 was determined as 4 µM. Turning to `O=C(Nc1cc(F)ccc1F)c1ccc(-n2c(O)c3c(c2O)[C@H]2C=C[C@@H]3C2)cc1` [N-(2,5-Difluoro-phenyl)-4-((1R,2S,6R,7S)-dioxo-4-aza-tricyclo[5.2.1.0*2,6*]dec-8-en-4-yl)-benzamide], the EC50 is > 25 µM. In the case of `O=C(Nc1ccccc1C(F)(F)F)c1ccc(-n2c(O)c3c(c2O)[C@H]2C=C[C@@H]3C2)cc1` [4-((1R,2S,6R,7S)-3,5-Dioxo-4-aza-tricyclo[5.2.1.0*2,6*]dec-8-en-4-yl)-N-(2-trifluoromethyl-phenyl)-benzamide], the EC50 was > 25 µM. For `COc1cc(C(=O)Nc2cccc3cccnc23)ccc1-n1c(O)c2c(c1O)[C@H]1C=C[C@@H]2C1` [4-((1R,2S,6R,7S)-3,5-Dioxo-4-aza-tricyclo[5.2.1.0*2,6*]dec-8-en-4-yl)-3-methoxy-N-quinolin-8-yl-benzamide], the EC50 was > 25 µM. As to `O=C(N[C@H]1CCCC[C@@H]1O)c1ccc(-n2c(O)c3c(c2O)[C@H]2C=C[C@@H]3C2)cc1` [trans-4-((1R,2S,6R,7S)-3,5-Dioxo-4-aza-tricyclo[5.2.1.0*2,6*]dec-8-en-4-yl)-N-((2-hydroxy-cyclohexyl)-benzamide], the EC50 was > 25 µM. Consider `Cc1ccnc2c(NC(=O)[C@H]3CC[C@H](CN4C(=O)[C@@H]5[C@H](C4=O)[C@@H]4C=C[C@H]5C4)CC3)cccc12` [4-((1R,2S,6R,7S)-3,5-Dioxo-4-aza-tricyclo[5.2.1.0*2,6*]dec-8-en-4-ylmethyl)-cyclohexanecarboxylic acid(4-methyl-quinolin-8-yl)-amide], for which the EC50 was > 25 µM.
